In US8969400B2, “Pharmaceutical compositions of 5-hydroxytryptophan and serotonin-enhancing compound” (Duke University, priority 2007, dated 2015):

What was measured:
Assay type in all cases: in vivo, mouse
[1] = tested on: NMRI mice; test: Tail suspension test in NMRI mice; details: single drug i.p. 30 min prior to test, 6 min test
Description: Drug candidates can be screened for antidepressant-like activity by using animal models. In the tail suspension test the mouse is suspended by its tail. The mouse will initially move and struggle but will with time become increasingly immobile. Pretreatment with a clinically effective antidepressant decreases the time spent immobile. This includes selective serotonin re-uptake inhibitors (SSRIs) and drugs inhibiting the noradrenaline reuptake mechanism, as well as some putative antidepressants with non-monoamine pharmacology. […] In animal models of depression, including the tail suspension test, mouse strains differ considerably in their responsiveness to antidepressants. This may parallel the clinical situation where a considerable subset of patients is refractory to pharmacotherapy. […] In our laboratory mice of the NMRI strain consistently fails to repond to SSRIs in the tail suspension test of antidepressant activity, while C57 mice show a strong response (FIG. 1). Male NMRI and C57Bl/6j mice (Taconic Europe, St. […]) weighing 25-35 g were housed and habituated for at least 7 days before the experiments in Macrolon III cages (20×40×18 cm) with eight mice per cage. Chow and water were available ad libitum, with lights on at 6 a.m. and off at 6 p.m. All behavioral testing was conducted during the light phase. […] All drugs were administered i.p. in saline in a volume of 10 ml/kg. In the tail suspension and locomotor activity experiments drugs were injected 30 min prior to test. The tail suspension test employed was a modified version to that described elsewhere. Mice were suspended individually by the tail using adhesive tape (attached 2 cm from tip of the tail) to a hook attached to a strain gauge and left there for 6 min. The duration of immobility was measured using an automated system (Med Associates, USA) during the 6 min testing period. Tail suspension data were analyzed either using one-way ANOVA (single-drug treatments) or two-way ANOVA (paroxetine/5-HTP and citalopram/5-HTP) with Dunnets post-hoc test. Locomotor activity data were analyzed using two-way ANOVA with Dunnets post-hoc test. Tissue 5-HT data were analyzed using students t-test. Microdialysis 5-HT data were analyzed using two-way repeated measures ANOVA with Dunnets post-hoc test.

[2] = tested on: C57Bl/6j mice; test: Tail suspension test in C57 mice; details: single drug i.p. 30 min prior to test, 6 min test
Description: Drug candidates can be screened for antidepressant-like activity by using animal models. In the tail suspension test the mouse is suspended by its tail. The mouse will initially move and struggle but will with time become increasingly immobile. Pretreatment with a clinically effective antidepressant decreases the time spent immobile. This includes selective serotonin re-uptake inhibitors (SSRIs) and drugs inhibiting the noradrenaline reuptake mechanism, as well as some putative antidepressants with non-monoamine pharmacology. […] In animal models of depression, including the tail suspension test, mouse strains differ considerably in their responsiveness to antidepressants. […]
The tail suspension test employed was a modified version to that described elsewhere. […] The duration of immobility was measured using an automated system (Med Associates, USA) during the 6 min testing period.
(§1) Tail suspension data were analyzed either using one-way ANOVA (single-drug treatments) or two-way ANOVA (paroxetine/5-HTP and citalopram/5-HTP) with Dunnets post-hoc test. Locomotor activity data were analyzed using two-way ANOVA with Dunnets post-hoc test. Tissue 5-HT data were analyzed using students t-test. Microdialysis 5-HT data were analyzed using two-way repeated measures ANOVA with Dunnets post-hoc test.

[3] = tested on: brain 5-HT; test: Tissue 5-HT in frontal cortex and hippocampus of NMRI mice (HPLC-EC); details: acute administration
Method: (§2) Male NMRI and C57Bl/6j mice (Taconic Europe, St. Laven, DK) weighing 25-35 g were housed and habituated for at least 7 days before the experiments in Macrolon III cages (20×40×18 cm) with eight mice per cage. Chow and water were available ad libitum, with lights on at 6 a.m. and off at 6 p.m. All behavioral testing was conducted during the light phase.
Fluoxetine HCl, desipramine HCL, 5-hydroxytryptamine, citalopram HBr, paroxetine HCl, reboxetine fumarate and duloxetine oxalate. All drugs were administered i.p. in saline in a volume of 10 ml/kg. In the tail suspension and locomotor activity experiments drugs were injected 30 min prior to test.
Mice killed by cervical dislocation and the frontal cortex and hippocampus rapidly dissected, frozen on dry ice and stored at −80° C. until analysis by HPLC-EC.
(§3) 5-HT in tissue and microdialysis samples were analysed using HPLC-EC as previously described in Weikop P et al.; Eur Neuropsychopharmacol 2007; 17:658-671.
as §1

[4] = tested on: extracellular 5-HT; test: Microdialysis of extracellular 5-HT in frontal cortex, NMRI mice; details: citalopram 20 mg/kg, 5-HTP 12.5 mg/kg
Method: as §2
Microdialysis were performed in freely moving mice as previously described in Jacobsen J P et al.; Neuroscience 2005; 132:1055-1072. The flowrate was 1 ul/min and 20 min samples were collected. Four baseline samples were collected whereafter saline, 5-HTP (12.5 mg/kg), citalopram (20 mg/kg) or citalopram+5-HTP were injected and six additional samples where collected. Samples were collected on ice, immediatedly frozen on dry ice and stored at −80° C. until analysis by HPLC-EC.
as §3, §1

SMILES | immobility in tail suspension test [1] | immobility in tail suspension test [2] | further results
Fc1ccc([C@@H]2CCNC[C@H]2COc2ccc3c(c2)OCO3)cc1 [paroxetine] | without effect | – | –
CCOc1ccccc1OC(c1ccccc1)C1CNCCO1 (stereo not shown) [reboxetine] | reduced immobility | decreased immobility | –
CNCCC(Oc1ccc(C(F)(F)F)cc1)c1ccccc1 (stereo not shown) [fluoxetine] | without effect | – | –
CNCC[C@H](Oc1cccc2ccccc12)c1cccs1 [duloxetine] | reduced immobility | – | –
N[C@@H](Cc1c[nH]c2ccc(O)cc12)C(=O)O [5-HTP, 5-hydroxytryptophan] | did not affect immobility | – | 5-HT levels ± sem, Frontal Cortex ([3]; frontal cortex tissue): 122 ± 3.3 % of saline; 5-HT levels ± sem, Hippocampus ([3]; hippocampus tissue): 83.4 ± 2.6 % of saline; decrease of tissue 5-HT in the hippocampus ([3]; vs saline): 17%; increase of tissue 5-HT in the frontal cortex ([3]; vs saline): 22%; increase in extracellular 5-HT in the frontal cortex [4]: only a modest increase
CNCCCN1c2ccccc2CCc2ccccc21 [desipramine] | reduced immobility | decreased immobility | –
